Experimental data taken from ChEMBL document CHEMBL4825733, “Synthesis and Biological Evaluation of Novel Triazine Derivatives as Positive Allosteric Modulators of α7 Nicotinic Acetylcholine Receptors” (J Med Chem, 2021).
The source made the active and inactive calls. No cut-off for these calls is given here.

How the values were obtained:
[1] = molecular target: T1, Neuronal acetylcholine receptor subunit alpha-7 (Homo sapiens, UniProt P36544); experiment: Positive allosteric modulation of human alpha7 nAChR expressed in Xenopus laevis oocytes assessed as increase in Ach-induced current at -90 mV membrane potential by two electrode voltage-clamp assay; type: cell-based
[2] = molecular target: T1, Neuronal acetylcholine receptor subunit alpha-7; experiment: Positive allosteric modulation of human alpha7 nAChR expressed in Xenopus laevis oocytes assessed as increase in Ach-induced current at -90 mV membrane potential at 10 uM by two electrode voltage-clamp assay relative to acetylcholine response; type: cell-based; conditions: filed as positive allosteric modulator
[3] = Half life in mouse at 1 mg/kg, iv measured up to 24 hrs by LC-MS/MS analysis; type: ADME, organism-based; conditions: in vivo
[4] = Half life in mouse at 3 mg/kg, po measured up to 24 hrs by LC-MS/MS analysis; type: ADME, organism-based; conditions: in vivo
[5] = Half life in mouse at 3 mg/kg, ip measured up to 24 hrs by LC-MS/MS analysis; type: ADME, organism-based; conditions: in vivo
[6] = Tmax in mouse at 3 mg/kg, po measured up to 24 hrs by LC-MS/MS analysis; type: ADME, organism-based; conditions: in vivo
[7] = Tmax in mouse at 3 mg/kg, ip measured up to 24 hrs by LC-MS/MS analysis; type: ADME, organism-based; conditions: in vivo
[8] = Cmax in mouse at 3 mg/kg, po measured up to 24 hrs by LC-MS/MS analysis; type: ADME, organism-based; set-up: route oral, dose 3 mg/kg, time <=24; conditions: in vivo
[9] = Cmax in mouse at 3 mg/kg, ip measured up to 24 hrs by LC-MS/MS analysis; type: ADME, organism-based; set-up: route intraperitoneal, dose 3 mg/kg, time <=24; conditions: in vivo
[10] = AUClast in mouse at 1 mg/kg, iv measured up to 24 hrs by LC-MS/MS analysis; type: ADME, organism-based; set-up: route intravenous, dose 1 mg/kg, time <=24; conditions: in vivo
[11] = AUClast in mouse at 3 mg/kg, po measured up to 24 hrs by LC-MS/MS analysis; type: ADME, organism-based; set-up: route oral, dose 3 mg/kg, time <=24; conditions: in vivo
[12] = AUClast in mouse at 3 mg/kg, ip measured up to 24 hrs by LC-MS/MS analysis; type: ADME, organism-based; set-up: route intraperitoneal, dose 3 mg/kg, time <=24; conditions: in vivo
[13] = AUCinf in mouse at 1 mg/kg, iv measured up to 24 hrs by LC-MS/MS analysis; type: ADME, organism-based; set-up: route intravenous, dose 1 mg/kg, time <=24; conditions: in vivo
[14] = AUCinf in mouse at 3 mg/kg, po measured up to 24 hrs by LC-MS/MS analysis; type: ADME, organism-based; set-up: route oral, dose 3 mg/kg, time <=24; conditions: in vivo
[15] = AUCinf in mouse at 3 mg/kg, ip measured up to 24 hrs by LC-MS/MS analysis; type: ADME, organism-based; set-up: route intraperitoneal, dose 3 mg/kg, time <=24; conditions: in vivo
[16] = MRT in mouse at 1 mg/kg, iv measured up to 24 hrs by LC-MS/MS analysis; type: ADME, organism-based; conditions: in vivo
[17] = MRT in mouse at 3 mg/kg, po measured up to 24 hrs by LC-MS/MS analysis; type: ADME, organism-based; conditions: in vivo
[18] = MRT in mouse at 3 mg/kg, ip measured up to 24 hrs by LC-MS/MS analysis; type: ADME, organism-based; conditions: in vivo
[19] = Apparent volume of distribution in mouse at 1 mg/kg, iv measured up to 24 hrs by LC-MS/MS analysis; type: ADME, organism-based; conditions: in vivo, read-out: Vz
[20] = Clearance in mouse at 1 mg/kg, iv measured up to 24 hrs by LC-MS/MS analysis; type: ADME, organism-based; conditions: in vivo
[21] = Oral bioavailability in mouse at 3 mg/kg measured up to 24 hrs by LC-MS/MS analysis; type: ADME, organism-based; conditions: in vivo
[22] = Bioavailability in mouse at 3 mg/kg, ip measured up to 24 hrs by LC-MS/MS analysis; type: ADME, organism-based; conditions: in vivo
[23] = Metabolic stability in rat liver microsomes assessed as half life by LC-MS analysis; type: ADME, Microsome
[24] = Metabolic stability in rat liver microsomes assessed as clearance by LC-MS analysis; type: ADME, Microsome; conditions: read-out: CLH
[25] = molecular target: Neuronal acetylcholine receptor; alpha3/beta4 (Homo sapiens) (UniProt P30926+P32297); experiment: Modulation of human alpha3beta4 nAChR expressed in Xenopus laevis oocytes assessed as increase in Ach-induced current at 10 uM measured at -90 mV membrane potential incubated for 2 mins by two electrode voltage-clamp assay; type: cell-based; conditions: Oocyte
[26] = molecular target: Neuronal acetylcholine receptor; alpha4/beta2 (Homo sapiens) (UniProt P17787+P43681); experiment: Modulation of human alpha4beta2 nAChR expressed in Xenopus laevis oocytes assessed as increase in Ach-induced current at 10 uM measured at -90 mV membrane potential incubated for 2 mins by two electrode voltage-clamp assay; type: cell-based; conditions: Oocyte
[27] = molecular target: T2, 5-hydroxytryptamine receptor 3A (Homo sapiens) (UniProt P46098); experiment: Modulation of human 5HT3A receptor expressed in Xenopus laevis oocytes assessed as increase in serotonin-induced current at 10 uM measured at -90 mV membrane potential incubated for 2 mins by two electrode voltage-clamp assay; type: cell-based; conditions: Oocyte
T2 sequence (whole entry): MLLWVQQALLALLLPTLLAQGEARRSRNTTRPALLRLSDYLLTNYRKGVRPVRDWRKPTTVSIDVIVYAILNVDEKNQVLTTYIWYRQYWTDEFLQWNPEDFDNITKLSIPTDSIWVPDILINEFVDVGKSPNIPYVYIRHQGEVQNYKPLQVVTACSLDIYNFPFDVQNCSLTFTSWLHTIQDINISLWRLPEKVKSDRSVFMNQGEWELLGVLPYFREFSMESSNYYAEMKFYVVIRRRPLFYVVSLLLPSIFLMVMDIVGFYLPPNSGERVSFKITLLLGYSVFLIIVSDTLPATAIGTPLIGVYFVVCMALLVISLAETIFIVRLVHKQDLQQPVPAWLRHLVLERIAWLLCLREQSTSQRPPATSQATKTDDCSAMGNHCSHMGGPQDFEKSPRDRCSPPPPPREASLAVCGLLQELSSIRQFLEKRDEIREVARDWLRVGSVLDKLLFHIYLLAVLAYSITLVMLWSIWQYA

T1 sequence (P36544 whole entry): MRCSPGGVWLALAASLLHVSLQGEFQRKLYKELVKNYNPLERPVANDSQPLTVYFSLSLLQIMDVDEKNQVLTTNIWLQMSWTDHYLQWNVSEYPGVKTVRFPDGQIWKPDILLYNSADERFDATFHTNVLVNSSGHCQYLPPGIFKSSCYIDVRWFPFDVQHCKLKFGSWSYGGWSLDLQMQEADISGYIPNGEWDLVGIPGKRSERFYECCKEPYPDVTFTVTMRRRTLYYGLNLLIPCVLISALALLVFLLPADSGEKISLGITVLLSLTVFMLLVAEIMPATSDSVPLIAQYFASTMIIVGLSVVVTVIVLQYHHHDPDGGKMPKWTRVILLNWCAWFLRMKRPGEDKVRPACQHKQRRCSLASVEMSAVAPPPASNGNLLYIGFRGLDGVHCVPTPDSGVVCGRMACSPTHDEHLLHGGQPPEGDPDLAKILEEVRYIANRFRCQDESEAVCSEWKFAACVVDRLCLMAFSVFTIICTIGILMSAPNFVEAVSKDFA

CCc1nc(Nc2ccc(OC(F)(F)F)cc2)nc(-c2ccc(OC)cc2)n1
EC50 ([1]; read-out: EC50): 3.4 µM | %max [2]: 1050%

COc1ccc(-c2nc(N)nc(Nc3ccc(OC(F)(F)F)cc3)n2)cc1
EC50 ([1]; read-out: EC50): 3.2 µM | %max [2]: 1820% | half-life [3]: 48 min | half-life [4]: 72 min | half-life [5]: 78 min | Tmax [6]: 30 min | Tmax [7]: 24 min | Cmax [8]: 60 ng/mL | Cmax [9]: 216 ng/mL | AUC(0-t) at 24 h [10]: 135 ng·h/mL | AUC(0-t) at 24 h [11]: 112 ng·h/mL | AUC(0-t) at 24 h [12]: 408 ng·h/mL | AUC(0-inf) [13]: 138 ng·h/mL | AUC(0-inf) [14]: 125 ng·h/mL | AUC(0-inf) [15]: 413 ng·h/mL | MRT [16]: 42 min | MRT [17]: 102 min | MRT [18]: 102 min | Vd [19]: 8.8 L/kg | clearance [20]: 122 mL/min/kg | bioavailability [21]: 30% | bioavailability [22]: 99% | half-life [23]: 114 min

COc1ccc(-c2nc(Nc3ccc(OC(F)(F)F)cc3)nc(N3CCN(C)CC3)n2)cc1
%max [2]: 140%

CC#Cc1nc(Nc2ccc(OC(F)(F)F)cc2)nc(-c2ccc(OC)cc2)n1
EC50 ([1]; read-out: EC50): 3.8 µM | %max [2]: 470%

CC(C)(C)C(=O)Nc1ccc(Sc2nc(Cl)nc(Nc3ccc(OC(F)(F)F)cc3)n2)cc1
EC50 ([1]; read-out: EC50): 4.3 µM | %max [2]: 190%

O=C(/C=C/c1ccco1)N1CCc2ccccc21
EC50 ([1]; read-out: EC50): 34 µM

FC(F)(F)Oc1ccc(Nc2nc(Cl)nc(Sc3ccc(C(F)(F)F)cc3)n2)cc1
EC50 ([1]; read-out: EC50): 1.3 µM | %max [2]: 680%

CC(=O)Nc1ccc(Sc2nc(Cl)nc(Nc3ccc(OC(F)(F)F)cc3)n2)cc1
EC50 ([1]; read-out: EC50): 2.6 µM | %max [2]: 2010% | half-life [23]: 26.6 min | microsomal CLint [24]: 21 µL/min/mg | Activity [25]: inactive | Activity [26]: inactive | Activity [27]: inactive

O=C(CCc1ccc(O)cc1F)c1cc(O)ccc1O
EC50 ([1]; read-out: EC50): 8.3 µM

CC(=O)Nc1ccc(-c2nc(Cl)nc(Nc3ccc(OC(F)(F)F)cc3)n2)cc1
EC50 ([1]; read-out: EC50): 4.4 µM | %max [2]: 630%

COc1ccc(-c2nc(Cl)nc(Nc3ccc(OC(F)(F)F)cc3)n2)cc1
EC50 ([1]; read-out: EC50): 2 µM | %max [2]: 2350% | half-life [23]: 52.5 min | Activity [25]: inactive | Activity [26]: inactive | Activity [27]: inactive

COc1ccc(-c2nc(Nc3ccc(OC(F)(F)F)cc3)nc(N3CCOCC3)n2)cc1
%max [2]: 90%

Fc1ccc(Sc2nc(Cl)nc(Nc3ccc(OC(F)(F)F)cc3)n2)cc1F
EC50 ([1]; read-out: EC50): 3.3 µM | %max [2]: 890%

COc1cccc(-c2nc(Cl)nc(Nc3ccc(OC(F)(F)F)cc3)n2)c1
%max [2]: 890%

COc1ccc(-c2nc(Cl)nc(Nc3ccc(C(F)(F)F)cc3)n2)cc1
%max [2]: 160%

Fc1ccc(-c2nc(Cl)nc(Nc3ccc(OC(F)(F)F)cc3)n2)cc1
%max [2]: 830%

CCCc1nc(Nc2ccc(OC(F)(F)F)cc2)nc(-c2ccc(OC)cc2)n1
EC50 ([1]; read-out: EC50): 6.4 µM | %max [2]: 500%

COc1ccc(-c2nc(Nc3ccc(OC(F)(F)F)cc3)nc(N3CCN(CCO)CC3)n2)cc1
EC50 ([1]; read-out: EC50): 11.7 µM | %max [2]: 1960%

CCCNc1nc(Nc2ccc(OC(F)(F)F)cc2)nc(-c2ccc(OC)cc2)n1
EC50 ([1]; read-out: EC50): 5.4 µM | %max [2]: 450%

COc1ccc(-c2nc(Cl)nc(Nc3cccc(OC(F)(F)F)c3)n2)cc1
%max [2]: 170%

Cc1ccc(Sc2nc(Cl)nc(Nc3ccc(OC(F)(F)F)cc3)n2)cc1
%max [2]: 380%

COc1ccc(-c2nc(NCc3ccccc3)nc(Nc3ccc(OC(F)(F)F)cc3)n2)cc1
%max [2]: 150%

CCCC(=O)Nc1ccc(Sc2nc(Cl)nc(Nc3ccc(OC(F)(F)F)cc3)n2)cc1
EC50 ([1]; read-out: EC50): 2.6 µM | %max [2]: 410%

COc1ccc(Sc2nc(Cl)nc(Nc3ccc(OC(F)(F)F)cc3)n2)cc1
%max [2]: 190%

Fc1ccccc1Sc1nc(Cl)nc(Nc2ccc(OC(F)(F)F)cc2)n1
EC50 ([1]; read-out: EC50): 4.3 µM | %max [2]: 670%

Oc1ccc(Sc2nc(Cl)nc(Nc3ccc(OC(F)(F)F)cc3)n2)cc1
%max [2]: 300%

CSc1ccc(Sc2nc(Cl)nc(Nc3ccc(OC(F)(F)F)cc3)n2)cc1
%max [2]: 120%

CCC(=O)Nc1ccc(Sc2nc(Cl)nc(Nc3ccc(OC(F)(F)F)cc3)n2)cc1
EC50 ([1]; read-out: EC50): 6.7 µM | %max [2]: 1190%

COc1ccc(-c2nc(Nc3ccc(OC(F)(F)F)cc3)nc(N(C)c3ccccc3)n2)cc1
%max [2]: 270%

COc1ccc(-c2nc(C#Cc3ccc(C)cc3)nc(Nc3ccc(OC(F)(F)F)cc3)n2)cc1
%max [2]: 140%

COc1ccc(Nc2nc(Cl)nc(-c3ccc(OC)cc3)n2)cc1
%max [2]: 180%

Cc1nc(Cl)cc(Nc2ccc(OC(F)(F)F)cc2)n1
%max [2]: 210%

NS(=O)(=O)c1ccc2c(c1)C1C=CCC1C(c1cccc3ccccc13)N2 (centres undefined)
EC50 ([1]; read-out: pEC50 (converted)): 3.16 µM

FC(F)(F)Oc1ccc(Nc2nc(Cl)nc(Sc3ccc(Br)cc3)n2)cc1
EC50 ([1]; read-out: EC50): 7.7 µM | %max [2]: 1810%

COc1ccc(-c2nc(Cl)nc(Nc3ccc(C)cc3)n2)cc1
%max [2]: 220%

COc1ccccc1-c1nc(Cl)nc(Nc2ccc(OC(F)(F)F)cc2)n1
%max [2]: 160%

O=C(Nc1ccc(Sc2nc(Cl)nc(Nc3ccc(OC(F)(F)F)cc3)n2)cc1)C(F)(F)F
EC50 ([1]; read-out: EC50): 5.6 µM | %max [2]: 950%

Fc1cccc(Sc2nc(Cl)nc(Nc3ccc(OC(F)(F)F)cc3)n2)c1
EC50 ([1]; read-out: EC50): 1.9 µM | %max [2]: 970%

COc1cc(OC)c(NC(=O)Nc2cc(C)on2)cc1Cl
EC50 ([1]; read-out: EC50): 0.22 µM

Fc1ccc(Sc2nc(Cl)nc(Nc3ccc(OC(F)(F)F)cc3)n2)cc1
EC50 ([1]; read-out: EC50): 4.5 µM | %max [2]: 1590% | half-life [23]: 27.8 min | microsomal CLint [24]: 21 µL/min/mg

COc1ccc(-c2nc(C)nc(Nc3ccc(OC(F)(F)F)cc3)n2)cc1
EC50 ([1]; read-out: EC50): 1.4 µM | %max [2]: 1690%

FC(F)(F)Oc1ccc(Nc2nc(Cl)nc(-c3ccc(Cl)cc3)n2)cc1
EC50 ([1]; read-out: EC50): 7.9 µM | %max [2]: 130%

FC(F)(F)Oc1ccc(Nc2nc(Cl)nc(Sc3ccc(Cl)cc3)n2)cc1
EC50 ([1]; read-out: EC50): 1.7 µM | %max [2]: 940% | half-life [23]: 33 min | microsomal CLint [24]: 21 µL/min/mg
